{
  "source": "patent US20230390178A1",
  "about": "“Skin Care Compositions and Methods of Use” (Colgate-Palmolive Company, priority 2022, published 2023)",
  "origin": "cited, not measured here",
  "data": [
    {"compound": "O=C1O[C@H]([C@@H](O)CO)C(O)=C1O[C@H]1O[C@H](CO)[C@@H](O)[C@H](O)[C@H]1O", "note": "[ascorbyl glucoside]", "values": [
      {"measurement": "Log P", "value": "−2.5"}
    ]}
  ]
}
